From the Kinase Knowledgebase extract (Sharma et al. 2016)

These compounds were tested against PIK3CA (bovine) (UniProt P32871) (assay: Inhibition of PIK3CA Kinase Activity).
Sequence of PIK3CA (bovine) (P32871 whole entry, looked up): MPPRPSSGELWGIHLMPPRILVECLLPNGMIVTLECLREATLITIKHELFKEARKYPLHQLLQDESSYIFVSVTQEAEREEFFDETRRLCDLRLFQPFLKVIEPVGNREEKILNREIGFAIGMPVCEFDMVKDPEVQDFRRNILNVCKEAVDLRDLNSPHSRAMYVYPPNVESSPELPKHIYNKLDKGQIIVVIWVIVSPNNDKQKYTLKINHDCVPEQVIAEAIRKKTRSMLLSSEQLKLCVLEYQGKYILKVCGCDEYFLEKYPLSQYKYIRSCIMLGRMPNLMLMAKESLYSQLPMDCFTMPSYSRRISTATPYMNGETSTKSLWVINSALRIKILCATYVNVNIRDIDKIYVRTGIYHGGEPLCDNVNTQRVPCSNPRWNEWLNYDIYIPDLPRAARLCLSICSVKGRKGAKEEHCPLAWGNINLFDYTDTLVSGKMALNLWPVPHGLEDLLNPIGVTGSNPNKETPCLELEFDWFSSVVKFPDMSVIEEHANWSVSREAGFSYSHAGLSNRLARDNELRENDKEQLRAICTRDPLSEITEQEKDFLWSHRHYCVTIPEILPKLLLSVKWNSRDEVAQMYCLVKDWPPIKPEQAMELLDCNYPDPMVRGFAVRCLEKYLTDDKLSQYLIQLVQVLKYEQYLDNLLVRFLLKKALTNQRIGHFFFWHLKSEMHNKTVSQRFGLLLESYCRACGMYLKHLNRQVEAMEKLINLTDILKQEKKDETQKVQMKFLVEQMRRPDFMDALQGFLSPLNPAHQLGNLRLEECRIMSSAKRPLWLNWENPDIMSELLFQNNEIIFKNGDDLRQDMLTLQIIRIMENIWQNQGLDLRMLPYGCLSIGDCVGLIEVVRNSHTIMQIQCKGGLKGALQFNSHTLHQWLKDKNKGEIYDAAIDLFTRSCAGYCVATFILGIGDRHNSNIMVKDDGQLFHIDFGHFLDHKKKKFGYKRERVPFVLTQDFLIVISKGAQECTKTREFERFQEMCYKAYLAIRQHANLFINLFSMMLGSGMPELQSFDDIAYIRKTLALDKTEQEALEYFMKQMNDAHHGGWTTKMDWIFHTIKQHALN

IC50 [nM]	Structure (SMILES)
3900	Nc1ccccc1-c1nc(N2CCOCC2)c2cc(O)ccc2n1
9800	Oc1ccc2c(N3CCOCC3)nc(-c3ccccc3)nc2c1
600	COc1cccc(-c2nc(N3CCOCC3)c3cc(O)ccc3n2)c1
440	Nc1cccc(-c2nc(N3CCOCC3)c3cc(O)ccc3n2)c1
75	Oc1cccc(-c2nc(N3CCOCC3)c3cc(O)ccc3n2)c1
1800	Oc1ccc2nc(-c3cccc(F)c3)nc(N3CCOCC3)c2c1
15000	COCCNc1nc(-c2ccccc2)nc2ccc(O)cc12
1300	Oc1ccc2nc(-c3ccccc3)nc(N3CCOCC3)c2c1
3700	OCc1ccc(-c2nc(N3CCOCC3)c3cc(O)ccc3n2)cc1
12000	Oc1ccc2nc(-c3ccccc3)nc(N3CCC(O)CC3)c2c1
> 60000	Oc1ccc2nc(-c3ccccc3)nc(N3CCCCC3)c2c1
2	Oc1cccc(-c2nc(N3CCOCC3)c3sccc3n2)c1
> 30000	Oc1cccc2nc(-c3ccccc3)nc(N3CCOCC3)c12
100	OCc1cccc(-c2nc(N3CCOCC3)c3cc(O)ccc3n2)c1
14000	c1ccc(-c2nc(N3CCOCC3)c3ccccc3n2)cc1
2100	COc1ccc2nc(-c3ccccc3)nc(N3CCOCC3)c2c1
13	Oc1cccc(-c2nc(N3CCOCC3)c3cnccc3n2)c1
21000	O=C1CCN(c2nc(-c3ccccc3)nc3ccc(O)cc23)CC1
56	Oc1cccc(-c2nc(N3CCOCC3)c3ccccc3n2)c1
27	Oc1cccc(-c2nc(N3CCOCC3)c3ncccc3n2)c1
930	Nc1ccc(-c2nc(N3CCOCC3)c3cc(O)ccc3n2)cc1
19	Oc1cccc(-c2nc(N3CCOCC3)c3ccncc3n2)c1
2900	Oc1ccc2nc(-c3ccccc3O)nc(N3CCOCC3)c2c1
2800	Oc1ccc(-c2nc(N3CCOCC3)c3cc(O)ccc3n2)cc1

The compounds below were run against PIK3CB (UniProt P42338) (assay: Inhibition of PIK3CB Kinase Activity).
Sequence of PIK3CB (P42338 whole entry, looked up): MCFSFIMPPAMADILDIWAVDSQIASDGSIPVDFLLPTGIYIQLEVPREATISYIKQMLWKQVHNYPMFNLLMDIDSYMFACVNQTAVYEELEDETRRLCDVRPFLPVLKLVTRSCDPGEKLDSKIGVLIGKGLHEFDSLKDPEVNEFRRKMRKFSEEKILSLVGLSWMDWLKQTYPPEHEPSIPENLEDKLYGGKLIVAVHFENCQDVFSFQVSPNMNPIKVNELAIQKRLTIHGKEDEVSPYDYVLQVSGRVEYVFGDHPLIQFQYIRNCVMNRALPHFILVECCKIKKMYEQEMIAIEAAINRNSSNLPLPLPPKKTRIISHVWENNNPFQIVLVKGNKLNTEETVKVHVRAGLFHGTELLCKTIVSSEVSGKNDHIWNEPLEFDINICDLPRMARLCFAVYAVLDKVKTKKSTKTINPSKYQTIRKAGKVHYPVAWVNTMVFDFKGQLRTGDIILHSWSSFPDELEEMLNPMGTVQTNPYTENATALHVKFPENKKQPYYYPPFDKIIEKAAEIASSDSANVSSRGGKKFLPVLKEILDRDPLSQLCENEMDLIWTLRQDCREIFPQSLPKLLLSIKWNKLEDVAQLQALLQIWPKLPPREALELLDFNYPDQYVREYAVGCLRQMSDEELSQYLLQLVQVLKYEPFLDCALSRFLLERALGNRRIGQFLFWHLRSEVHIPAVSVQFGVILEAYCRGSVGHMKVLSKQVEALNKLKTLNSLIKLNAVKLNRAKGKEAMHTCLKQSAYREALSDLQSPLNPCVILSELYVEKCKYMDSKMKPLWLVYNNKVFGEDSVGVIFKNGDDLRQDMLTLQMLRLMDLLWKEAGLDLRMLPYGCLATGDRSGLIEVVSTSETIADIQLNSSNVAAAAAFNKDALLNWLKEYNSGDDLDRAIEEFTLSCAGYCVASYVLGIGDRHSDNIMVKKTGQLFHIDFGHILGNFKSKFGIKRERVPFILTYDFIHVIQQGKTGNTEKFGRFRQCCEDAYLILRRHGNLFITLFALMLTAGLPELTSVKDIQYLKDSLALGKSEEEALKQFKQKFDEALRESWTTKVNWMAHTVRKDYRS

IC50 [nM]	Structure (SMILES)
16	Oc1cccc(-c2nc(N3CCOCC3)c3sccc3n2)c1

The compounds below were run against PIK3CG (UniProt P48736) (assay: Inhibition of PIK3CG Kinase Activity).
Sequence of PIK3CG (P48736 whole entry, looked up): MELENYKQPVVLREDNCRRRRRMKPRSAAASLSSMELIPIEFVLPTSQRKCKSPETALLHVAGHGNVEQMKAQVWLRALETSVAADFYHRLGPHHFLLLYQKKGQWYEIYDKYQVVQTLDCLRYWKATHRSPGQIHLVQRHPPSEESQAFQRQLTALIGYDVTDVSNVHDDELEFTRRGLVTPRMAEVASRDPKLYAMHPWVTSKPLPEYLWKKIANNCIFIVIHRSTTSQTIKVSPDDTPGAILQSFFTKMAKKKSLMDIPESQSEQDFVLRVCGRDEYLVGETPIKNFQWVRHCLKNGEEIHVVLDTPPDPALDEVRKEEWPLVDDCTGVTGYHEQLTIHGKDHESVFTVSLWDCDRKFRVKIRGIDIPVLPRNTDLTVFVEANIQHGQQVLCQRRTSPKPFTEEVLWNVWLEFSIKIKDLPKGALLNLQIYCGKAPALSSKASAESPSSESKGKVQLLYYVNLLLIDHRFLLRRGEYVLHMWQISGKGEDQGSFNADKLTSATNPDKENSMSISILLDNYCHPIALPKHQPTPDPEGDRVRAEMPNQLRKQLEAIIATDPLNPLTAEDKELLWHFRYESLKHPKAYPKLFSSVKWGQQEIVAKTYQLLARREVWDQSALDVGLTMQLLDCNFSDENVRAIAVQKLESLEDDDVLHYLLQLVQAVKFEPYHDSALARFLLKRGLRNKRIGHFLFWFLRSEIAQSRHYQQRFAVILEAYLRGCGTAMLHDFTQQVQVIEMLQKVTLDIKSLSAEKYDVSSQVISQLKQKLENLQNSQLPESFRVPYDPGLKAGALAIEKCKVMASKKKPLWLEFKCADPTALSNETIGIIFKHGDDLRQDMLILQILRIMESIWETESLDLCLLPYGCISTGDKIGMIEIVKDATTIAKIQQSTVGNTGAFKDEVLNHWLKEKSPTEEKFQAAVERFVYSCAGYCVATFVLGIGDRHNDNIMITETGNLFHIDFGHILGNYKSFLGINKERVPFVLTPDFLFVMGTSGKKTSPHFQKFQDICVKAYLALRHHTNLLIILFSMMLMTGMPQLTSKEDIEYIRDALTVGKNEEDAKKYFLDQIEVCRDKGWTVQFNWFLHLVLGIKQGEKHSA

IC50 [nM]	Structure (SMILES)
660	Oc1cccc(-c2nc(N3CCOCC3)c3sccc3n2)c1

What follows are compounds tested against CDK2 (UniProt P24941) (assay: Enzyme Assay).

IC50 [nM]	Structure (SMILES)
28000	Oc1cccc(-c2nc(N3CCOCC3)c3sccc3n2)c1
